Values quoted from earlier work as cited in patent EP3336085A1, “PROCESS AND INTERMEDIATE FOR THE PREPARATION OF 1-(4-(2-((1-(3,4-DIFLUOROPHENYL)-1H-PYRAZOL-3-YL)METHOXY)ETHYL)PIPERAZIN-1-YL)ETHANONE” (Laboratorios del Dr. Esteve S.A., priority 2016, dated 2018).
Read-outs that look alike come from different tables or passages of the source.

What was measured:
sigma-1 (σ1) receptor = sigma-1 (σ1) receptor (Homo sapiens, UniProt Q99720)
sigma-1 (σ1) receptor, sequence (Q99720 whole entry): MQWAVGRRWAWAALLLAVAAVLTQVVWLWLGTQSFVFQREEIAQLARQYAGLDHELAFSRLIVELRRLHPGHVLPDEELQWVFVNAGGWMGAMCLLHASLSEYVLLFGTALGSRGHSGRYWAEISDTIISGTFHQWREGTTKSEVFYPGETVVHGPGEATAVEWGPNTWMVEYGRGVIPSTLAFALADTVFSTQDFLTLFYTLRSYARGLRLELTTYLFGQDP

water solubility (pH=2): very soluble
water solubility (pH=7.4): very soluble
sigma-1 (σ1) receptor antagonist selectivity (sigma-1 (σ1) receptor): highly selective
Structure (SMILES): CC(=O)N1CCN(CCOCc2ccn(-c3ccc(F)c(F)c3)n2)CC1.Cl [1-(4-(2-((1-(3,4-difluorophenyl)-1 H-pyrazol-3-yl)methoxy)ethyl)piperazin-1-yl)ethanone hydrochloride]
